Laboratory results as given in ChEMBL document CHEMBL5518174 (Eur J Med Chem, 2024).
Active and inactive are the calls of the source. The calls are words filed in the database; no cut-off is given here.

Tests used:
NCI-H1975 [1] = assay: cells; format: functional, cell-based; conditions: Homo sapiens, NCI-H1975, 48 h
Description: Cytotoxicity against human NCI-H1975 cells assessed as inhibition of cell growth incubated for 48 hrs by Celltiter-glo assay

Histone deacetylase = assay: Inhibition of HDAC in human HeLa cells nuclear extract; format: subcellular, Nucleus
MDA-MB-231 = assay: Cytotoxicity against human MDA-MB-231 cells assessed as inhibition of cell growth incubated for 48 hrs by Celltiter-glo assay; format: functional, cell-based; conditions: MDA-MB-231, 48 h
NCI-H1975 [2] = assay: Induction of katanin activation mediated microtubule fragmentation in human NCI-H1975 cells at 80 nM incubated for 12 hrs by FITC/DAPI staining based confocal laser microscopic analysis; format: cell-based; conditions: filed as activator
[3] = Antiproliferative activity against human CL83 cells harboring wild-type EGFR assessed as inhibition of cell growth by SRB assay; format: functional, cell-based
CL97 = assay: Antiproliferative activity against human CL97 cells harboring mutated EGFR assessed as inhibition of cell growth by SRB assay; format: functional, cell-based
[4] = Antiproliferative activity against human CL25 cells harboring mutated EGFR assessed as inhibition of cell growth by SRB assay; format: functional, cell-based
[5] = Antiproliferative activity against human CL1-5 cells harboring wild-type EGFR assessed as inhibition of cell growth by SRB assay; format: functional, cell-based
[6] = Antiproliferative activity against human CL152 cells harboring wild-type EGFR assessed as inhibition of cell growth by SRB assay; format: functional, cell-based
[7] = Antiproliferative activity against human CL141 cells harboring wild-type EGFR assessed as inhibition of cell growth by SRB assay; format: functional, cell-based
CL1-0 = assay: Antiproliferative activity against human CL1-0 cells harboring wild-type EGFR assessed as inhibition of cell growth by SRB assay; format: functional, cell-based
[8] = Antiproliferative activity against human CL100 cells harboring mutated EGFR assessed as inhibition of cell growth by SRB assay; format: functional, cell-based

Structure (SMILES) | IC50 (NCI-H1975 [1]) [nM] | IC50 (Histone deacetylase) [nM] | further results
CCOc1ccc(-c2nc(C(=O)NCCOCCOCC(=O)NO)c3[nH]c(=O)n(-c4ccccc4OC)c3n2)cc1 | 4600 | 10800 | 
CCOc1ccc(-c2nc(C(=O)NCCCCCCC(=O)NO)c3[nH]c(=O)n(-c4ccccc4OC)c3n2)cc1S(N)(=O)=O | 24800 | 60 | 
CCOc1ccc(-c2nc(C(=O)O)c3[nH]c(=O)n(-c4ccccc4OC)c3n2)cc1 | > 100000 | > 100000 | 
COc1ccccc1-n1c(=O)[nH]c2c(C(=O)NCCCCCCC(=O)NO)nc(C(C)C)nc21 | 1500 | 200 | 
CCOc1ccc(-c2nc(C(=O)NCCCCCCC(=O)Nc3ccccc3N)c3[nH]c(=O)n(-c4ccccc4OC)c3n2)cc1 | 2200 | > 100000 | 
CCOc1ccc(-c2nc(C(=O)NCCCCCCC(=O)NO)c3[nH]c(=O)n(-c4ccccc4OC)c3n2)cn1 | 400 | 40 | IC50 (MDA-MB-231): 60 nM
CCOc1ccc(-c2nc(C(=O)NCCCCCCC(=O)NO)c3[nH]c(=O)n(-c4cccnc4OC)c3n2)cc1 | 300 | 30 | IC50 (MDA-MB-231): 60 nM
COc1ccc(-c2nc(C(=O)NCCCCCCC(=O)NO)c3[nH]c(=O)n(-c4ccccc4OC)c3n2)cc1O | 1200 | 10 | IC50 (MDA-MB-231): 310 nM
CCOc1ccc(-c2nc(C(N)=O)c3[nH]c(=O)n(-c4ccccc4OC)c3n2)cc1 |  | > 100000 | 
CCOc1ccc(-c2nc(C(=O)NO)c3[nH]c(=O)n(-c4ccccc4OC)c3n2)cc1 |  | > 100000 | 
CCOc1ccc(-c2nc(C(=O)NCCCCCCC(=O)NO)c3[nH]c(=O)n(-c4cccnc4OC)c3n2)cn1 | 410 | 2 | IC50 (MDA-MB-231): 320 nM
CCOc1ccc(-c2nc(C(=O)NCCCCCCCN(Cc3ccccn3)Cc3ccccn3)c3[nH]c(=O)n(-c4ccccc4OC)c3n2)cc1 | 2700 | > 100000 | 
CCOc1ccc(-c2nc(C(=O)NOCCCCCC(=O)NO)c3[nH]c(=O)n(-c4ccccc4OC)c3n2)cc1 | 250 | 130 | IC50 (MDA-MB-231): 100 nM
CCOc1ccc(-c2nc(C(=O)NCCCCCCC(=O)N(Cc3ccccn3)Cc3ccccn3)c3[nH]c(=O)n(-c4ccccc4OC)c3n2)cc1 | 2300 | > 100000 | 
CCOc1ccc(-c2nc(C(=O)NCCCc3nc(C(=O)NO)cs3)c3[nH]c(=O)n(-c4ccccc4OC)c3n2)cc1 | 4900 | 14200 | 
COc1ccccc1-n1c(=O)[nH]c2c(C(N)=O)nc(-c3ccc(C(C)C)cc3)nc21 | > 100000 | > 100000 | 
CCOc1ccc(-c2nc(C(=O)NCc3ccc(C(=O)NO)cc3)c3[nH]c(=O)n(-c4ccccc4OC)c3n2)cc1 | 130 | 250 | IC50 (MDA-MB-231): 70 nM

Second part, led by results:

IC50 (NCI-H1975 [1]) [nM] | IC50 (Histone deacetylase) [nM] | Structure (SMILES) | further results
2600 | > 100000 | CCOc1ccc(-c2nc(C(=O)NCCCCCCC(=O)Nc3nccs3)c3[nH]c(=O)n(-c4ccccc4OC)c3n2)cc1 | 
500 | > 100000 | CCOc1ccc(-c2nc(C(=O)NCCCCC/C(N)=N/O)c3[nH]c(=O)n(-c4ccccc4OC)c3n2)cc1 | 
4900 | > 100000 | CCOc1ccc(-c2nc(C(=O)NCCCCCNC(=O)CN)c3[nH]c(=O)n(-c4ccccc4OC)c3n2)cc1.Cl | 
16200 | > 100000 | CCOc1ccc(-c2nc(C(=O)NCCCCNC(=O)CN)c3[nH]c(=O)n(-c4ccccc4OC)c3n2)cc1.Cl | 
3300 | > 100000 | CCOc1ccc(-c2nc(C(=O)NCCCCCCNC(=O)NO)c3[nH]c(=O)n(-c4ccccc4OC)c3n2)cc1 | 
1500 | > 100000 | CCOc1ccc(-c2nc(C(=O)NCCCCCCC(=O)N(C)O)c3[nH]c(=O)n(-c4ccccc4OC)c3n2)cc1 | 
140 | 170 | CCOc1ccc(-c2nc(C(=O)NCCCCCCC(=O)NO)c3[nH]c(=O)n(-c4ccccc4OC)c3n2)cc1 | IC50 (MDA-MB-231): 40 nM; Activity (NCI-H1975 [2]): Active; IC50 [3]: 320 nM; IC50 (CL97): 240 nM; IC50 [4]: 320 nM; IC50 [5]: 170 nM; IC50 [6]: 260 nM; IC50 [7]: 270 nM; IC50 (CL1-0): 60 nM; IC50 [8]: 360 nM
2000 | > 100000 | CCOc1ccc(-c2nc(C(=O)NCCCCCCNC(N)=O)c3[nH]c(=O)n(-c4ccccc4OC)c3n2)cc1 | 
5600 | 2830 | CCOc1ccc(-c2nc(C(=O)NCCCCCCC(=O)CSC(C)=O)c3[nH]c(=O)n(-c4ccccc4OC)c3n2)cc1 | 
2400 | > 100000 | CCOc1ccc(-c2nc(C(=O)NCCCCCCNC(=O)CN)c3[nH]c(=O)n(-c4ccccc4OC)c3n2)cc1.Cl | 
3400 | > 100000 | CCOc1ccc(-c2nc(C(=O)NCCCCCCC(=O)O)c3[nH]c(=O)n(-c4ccccc4OC)c3n2)cc1 | 
1400 | > 100000 | CCOc1ccc(-c2nc(C(=O)NCCCCCCC(=O)NC3CCCCC3O)c3[nH]c(=O)n(-c4ccccc4OC)c3n2)cc1 (centres undefined) | 
400 | > 100000 | CCOc1ccc(-c2nc(C(=O)NCCCCCCC(=O)NOC)c3[nH]c(=O)n(-c4ccccc4OC)c3n2)cc1 | 
